Source: patent publication US12678451B2, “Cannabinoid and omega fatty acid compositions and methods of using” (GreenWay Herbal Products, LLC, priority 2019, dated 2026)
Read-outs that look alike come from different tables or passages of the source.

Legend:
[1] = doses up to 600 mg in humans; cited from earlier work
[2] = test system: cytokines induced in mice by LPS; assay: Mouse LPS cytokine animal model (Example 3), cannabinoids in PB with 5% DMSO; format: in vivo; details: 5 mg/kg
Experimental: This experiment was conducted to compare the ability of CBD, CBDA or the 1:1 equimolar mixture of CBD:CBDA to suppress the induction of cytokines whose expression levels were induced in mice by LPS.
The ability of agents to suppress the immune system can be tested in vivo using an LPS mouse model, in which mice are injected with LPS to cause an immune response (Field et al., 1970; Ghezzi P and Sipe J D, 1988).
Four 20 g female C57BL/6 mice were used per group. The experimental mice were first injected with 0.1 mL of the cannabinoids prepared at 1 mg/mL in phosphate buffer (PB) with 5% DMSO to yield a final dose of 5 mg/kg, followed one hour later by the injection of 0.1 mL of 0.02 mg/mL LPS in PB to yield a final dose of 0.1 mg/kg. Mice injected with 0.1 mL of PB with 5% DMSO and 0.1 mL of PBS served as a non-induced control and mice injected with 0.1 mL of PB with 5% DMSO and 0.1 mL of 0.02 mg/mL LPS in PB served as a LPS untreated control. After allowing two hours for the immune system to be induced by LPS, the mice were then euthanized, heart punctures performed to extract the blood, which was allowed to coagulate on ice for 1 hour before centrifuging to isolate the serum. The levels of 32 of the most common mouse cytokines (Eve Technologies, Calgary, Canada, Table 9) were determined by multi-plex analysis.

[3] = test system: cytokine levels in differentiated THP-1 cells treated with LPS; assay: THP-1 human cellular LPS cytokine assay, three independent experiments, total averaged suppression
Experimental: Cells were seeded onto 24-, or 12-well plates and incubated for 48 hours to 72 hours to allow for differentiation. […] Supernatants were collected for quantification of human cytokine levels to assess the cytokine response. Cells remaining after the supernatant collection were tested to ensure they had at least 90% viability as determined by Alamar Blue assays. To conduct the Alamar Blue assays, supernatants were replaced with culture medium containing 1× Alamar Blue reagent and incubated overnight. Cell viability was assessed by measuring relative fluorescent units (RFU) on the SpectraMax M2e microplate reader (Molecular Devices Inc., Sunnyvale, Calif., USA) at Excitation 560 nm and Emission 590 nm. Controls included untreated cells with DMSO at the same concentration as the treated cells, LPS stimulated cells with DMSO at the same concentration as the treated cells and LPS stimulated cell with the various treatments. The levels of 42 of the most common human cytokines (Eve Technologies, Calgary, Canada Table 6) were determined by multi-plex analysis.
For this reason, the level of cytokine suppression was determined for each cytokine by each cannabinoid that was tested and the total averaged suppression for each cannabinoid was determined by dividing the total suppression by the number of the cytokines that were analyzed.

[4] = test system: cytokine levels in differentiated THP-1 cells treated with LPS; assay: THP-1 human cellular LPS cytokine assay, four independent experiments, per cytokine; format: cell-based; details: 2 µM; LPS 20 ng/mL
[5] = doses up to 100 mg in mice; cited from earlier work
[6] = test system: animal or human cells grown via tissue culture; details: cited from earlier work
[7] = test system: differentiated U-937 cells; assay: Human cellular U-937 autophagy induction assay (anti-LC3); format: cell-based; details: 1.0 μM, 12 hours
Experimental: The induction of autophagy was monitored using anti-LC3 antibodies to detect LC3 on the autophagosome in human U-937 pro-monocytic histiocytic lymphoma cells (ATCC, Manassas, Va., USA), which generate morphologies characteristic of macrophages upon induction by various stimuli. U-937 cells were cultured in RPMI-1640 medium with L-glutamine and sodium bicarbonate (Sigma-Aldrich, St Louis, Mo.) supplemented with 10% fetal bovine serum (FBS) and 1% penicillin in 25 cm2 tissue flasks at 37° C. in a 5% CO2 humidified atmosphere and passaged every 2-3 days. U-937 cells were seeded in 96 well plates at 5×10^5 cells/mL and stimulated with 100 ng/mL PMA to induce differentiation for 24 hours. The cells were then treated with the various cannabinoids at 1.0 μM concentrations for 12 hours. 30 μM chloroquine was used as a positive control. After treatment, the cells were fixed using 3.7% formaldehyde in PBS for 15 minutes at room temperature and washed with PBS to remove the fixative. Permeabilization reagent (0.2% Triton X-100 in PBS) (Sigma-Aldrich) was added, the cells were incubated for 15 minutes at room temperature and then the cells were washed with PBS to remove the permeabilization reagent. LC3B rabbit polyclonal antibody (Invitrogen) was added at a final concentration of 0.5 μg/ml for 1 hour at room temperature and the cells were washed with PBS remove the primary antibody. Secondary conjugated goat anti-rabbit polyclonal antibody (Thermo Scientific) was then added at a final concentration of 2.0 μg/ml for 1 hour at room temperature. The cells were washed, Hoechst dye was added to stain the nucleus and the cells were imaged using an Arrayscan VTI high-content screening (HCS) reader (Thermo Scientific) with the appropriate filters and the data was analyzed using the vHCS Scan software.
Chloroquine at a concentration of 30 μM was included as a positive control. The ability to induce autophagy was determined as a percentage with respect to the untreated control.

DPPH antioxidant assay = format: biochemical; details: 100 μM
Experimental: The ability of the cannabinoids to act as potential antioxidants was assessed using the 2,2-diphenyl-1-picrylhydrazyl (DPPH) antioxidant assay. The cannabinoids CBDA, CBD, CBDVA, CBDV, CBG, THCV, and the 1:1 CBD:CBDA mixture had the highest antioxidant activities with radical scavenging activities of 38.19%, 48.00%, 43.81%, 44.21%, 44.28%, 45.71%, and 43.74%, respectively.
The 2,2-diphenyl-1-picrylhydrazyl (DPPH) free radical (Alfa Aesar) was prepared at 0.1 mM in ethanol. The cannabinoids were tested at a final concentration of 100 uM. 2 uL of 7.5 mM stock solutions of the cannabinoids to be tested in DMSO were added to 148 uL of 0.1 mM DPPH to achieve a final concentration of 100 μM in the assay. Ascorbic acid (Thermo Scientific) at a final concentration of 10 mg/ml was used as a positive control. The reaction mixture was incubated in the dark at room temperature for 1 hour, the absorbance of the mixture was read at 517 nm using a Spectra Max 5M microplate reader (Molecular Devices, LLC, Sunnyvale, Calif., USA) and the absorbance was converted to percent radical scavenging activity (% RSA) using the following formula: % RSA=[(Absorbance of the control−Absorbance of the sample)/(Absorbance of the control)]×100.
Free radical production occurs when the immune system is activated and antioxidants represent potential effective treatments for inflammatory conditions and autoimmune diseases. […] The DPPH antioxidant assay can be used to measure the ability of a compound to scavenge free radicals by measuring the ability of compounds to hydrogenate and reduce DPPH. The DPPH assay was conducted on CBCA, CBDA, CBDVA, CBGA, CBLA, CBNA, THCVA, and their decarboxylated derivatives as well as the 1:1 CBD:CBDA mixture.

C=C(C)[C@@H]1CCC(C)=C[C@H]1c1c(O)cc(CCCCC)cc1O [CBD, 2-[(1R,6R)-6-Isopropenyl-3-methyl-2-cyclohexen-1-yl]-5-pentyl-1,3-benzenediol]
adverse side effects [1]: no adverse side effects | Average cytokine suppression [2]: 12.86% | GM-CSF suppression [2]: 34.53% | IFNγ suppression [2]: −0.19% | IL-1β suppression [2]: 10.58% | IL-2 suppression [2]: −0.09% | IL-6 suppression [2]: 4.49% | IL-12β p40 suppression [2]: 34.89% | IL-13 suppression [2]: 6.38% | IL-17 suppression [2]: 7.51% | IP-10 suppression [2]: 1.72% | KC suppression [2]: 7.85% | LIF suppression [2]: 25.24% | M-CSF suppression [2]: 7.70% | MIP-1α suppression [2]: 6.69% | MIP-1β suppression [2]: −0.77% | MIP-2 suppression [2]: 34.56% | TNF-α suppression [2]: 24.74% | effectiveness at reducing elevated cytokine levels relative to dexamethasone [3]: at least half as effective as dexamethasone | inhibition at 2 µM ([3]; Homo sapiens, THP-1, 4 h, read-out: % Cytokine Suppression (total averaged)): 33.1% | Average cytokine suppression [4]: 39.62% | EGF suppression [4]: −5.61% | FGF-β suppression [4]: 41.85% | Flt-3L suppression [4]: 60.02% | G-CSF suppression [4]: 51.32% | GM-CSF suppression [4]: 45.16% | IFNγ suppression [4]: 13.71% | IL-1α suppression [4]: 55.14% | IL-1β suppression [4]: 71.06% | IL-4 suppression [4]: 14.63% | IL-6 suppression [4]: 66.26% | IL-7 suppression [4]: 18.2% | IL-10 suppression [4]: 32.42% | IL-12 p70 suppression [4]: −31.17% | IL-15 suppression [4]: 62.30% | IL-18 suppression [4]: 56.90% | IP-10 suppression [4]: 67.08% | MCP-1 suppression [4]: 43.90% | MIP-1β suppression [4]: 31.85% | TNFα suppression [4]: 29.05% | TNFβ suppression [4]: 68.24% | adverse side effects [5]: no adverse side effects | dose that can cause significant cytotoxicity [6]: less than 5 μM | Fluorescence (LC3) [7]: 45.43 | activation at 1 µM ([7]; Homo sapiens, U-937, read-out: Induction of autophagy with respect to the untreated control): -5.84% | radical scavenging activity compared to the untreated control (DPPH antioxidant assay): at least two-fold | % RSA (radical scavenging activity) (DPPH antioxidant assay; 1 hour): 48.00%
